The nature of the data set: osmotic coefficient (dimensionless); mn = molality of the nth substance listed, in mol/kg. The note with it: 298.15 K, 100 kPa, Liquid, isopiestic method.

Each structure is given as a SMILES string. ± gives the expanded uncertainty stated by the source.

Take `N[C@@H](CO)C(=O)O` [L-serine] + O: the osmotic coefficient is, setting by setting: (m1 = 1.014) 0.986 ± 0.01; (m1 = 2.276) 0.876 ± 0.011; (m1 = 2.931) 0.855 ± 0.011; (m1 = 3.121) 0.875 ± 0.011; (m1 = 3.201) 0.872 ± 0.011; (m1 = 3.445) 0.861 ± 0.011. For the same compound, for the setting “m1 = 3.639”, the osmotic coefficient came out at 0.889 ± 0.011.
In the case of `CCCCn1cc[n+](C)c1.[Br-]` [1-butyl-3-methylimidazolium bromide] + O, the osmotic coefficient runs as follows: (m1 = 0.6482) 0.771 ± 0.013; (m1 = 1.344) 0.742 ± 0.014; (m1 = 1.706) 0.734 ± 0.014; (m1 = 1.869) 0.731 ± 0.014; (m1 = 1.921) 0.726 ± 0.014; (m1 = 2.034) 0.729 ± 0.014. Under “m1 = 2.247”, the osmotic coefficient worked out at 0.719 ± 0.014.

Source of the values: the NIST ThermoML archive (doi:10.1016/j.jct.2014.11.014).
